Values quoted from earlier work, collected in patent publication US9878049B2, “High drug loading system to co-deliver anticancer drugs and nucleic acids for cancer therapy” (THE UNIVERSITY OF AKRON, priority 2013, dated 2018).

Conditions: general statement, no test described

Question: With `CC[C@@]1(O)C(=O)OCc2c1cc1n(c2=O)Cc2cc3ccccc3nc2-1` [CPT, Camptothecin] as the compound, how does the water solubility read?
Answer: The water solubility was “low water solubility”.
